Laboratory results reported in patent US8183046B2, “Temperature resistant pH buffers for use at low temperatures” (The Board of Trustees of the University of Illinois, priority 2007, dated 2012).
Several values for one entry are separate records, joined by “and”; a condition that tells them apart may be missing. Equal entries are not always repeated. Residues, ends and D or L forms follow the SMILES beside them.

Key:
[1] = cited from earlier work
[2] = cited from earlier work; for Effective pH Range: buffer without pK index; for pKa values for the single buffers, second value: Table 5, in parentheses; for Effective pH Range (pK1): line labelled pK1; for Effective pH Range (pK2): line labelled pK2; for Effective pH Range (pK3): line labelled pK3
[3] = Temperature dependence of pH of buffer solutions, ratiometric UV-vis (A418/A623) with indicator 1; assay type: physicochemical; settings: for direction of pH change as the solution is equilibrated at lower temperatures: FIG. 4, 50 mM buffer solutions containing 75% glycerol; for pH at plateau: plateau 150 K to 90 K; for pH at 298 K: single buffers
[4] = pH-sensitive dye; cited from earlier work
[5] = cited from earlier work; remark: listed apart in the source
[6] = Freeze-thaw storage stability of oxacillin solutions in various buffers, HPLC; assay type: physicochemical
[7] = Table 3, change in pH with decreasing temperature, pH 6.1 at 298 K

Compound: thrombin-activated porcine factor VIII: thrombin-activated porcine factor VIII, heterotrimeric coagulation protein
- coagulation activity between pH 7 and 8 ([1]; between pH 7 and 8): sharp decline
- state of the protein at pH 6.0 ([1]; pH 6.0 at 4° C. or 20° C.): stable, active, heterotrimer

Compound: O=S(=O)(O)CCNC1CCCCC1 [CHES]
- Effective pH Range ([2]; Table 2): 8.6–10.0

Compound: O=P(O)(O)O [KPhosphate, potassium phosphate]
- ΔpH over a 208 K range ([3]; 298 K to 90 K, 50 mM buffer, pH 7.0): −0.50
- direction of pH change as the solution is equilibrated at lower temperatures [3]: decreases
- pH at plateau ([3]; Table 3, pH 7.0 at 298 K): 6.5
- pH at plateau ([3]; Table 3, pH 8.0 at 298 K): 7.3
- pH at 298 K ([3]; Table 3): 8.0 and 7.0
- ΔpH ([3]; pH 7): −0.5
- ΔpH ([3]; pH 8): −0.7
- pH change ([3]; starting from pH 8.0, indicator 1): ~−0.7 units

Compound: CC(C)(CO)NCC(O)CS(=O)(=O)O (centres unmarked) [AMPSO]
- Effective pH Range ([2]; Table 2): 8.3–9.7

Compound: NC(CO)(CO)CO [Trizma, 2-Amino-2-(hydroxymethyl)-1,3-propanediol]
- direction of pH change as the solution is equilibrated at lower temperatures [3]: increases
- ΔpH ([3]; Table 3, change in pH with decreasing temperature, pH 7.0 at 298 K): +2.2
- pH at plateau ([3]; Table 3, pH 7.0 at 298 K): 9.2
- pH at 298 K ([3]; Table 3): 7.0
- Effective pH Range ([2]; Table 2): 7.5–9.0

Compound: O=S(=O)(O)CC(O)CN1CCN(CC(O)CS(=O)(=O)O)CC1 (centres unmarked) [POPSO]
- Effective pH Range ([2]; Table 2): 7.2–8.5

Compound: O=C(O)CNC(CO)(CO)CO [tricine]
- Effective pH Range ([2]; Table 2): 7.4–8.8

Compound: Cc1c(C2(c3cc(Br)c(O)c(Br)c3C)OS(=O)(=O)c3ccccc32)cc(Br)c(O)c1Br [Bromocresol green]
- pKa [4]: 4.6

Compound: CC(=O)[O-].[Na+] [Na-Acetate, sodium acetate]
- pH at plateau ([3]; Table 3, pH 5.0 at 298 K): 5.4
- pH at 298 K ([3]; Table 3): 5.0
- ΔpH ([3]; pH 5): +0.4

Compound: O=S(=O)(O)CCCCNC(CO)(CO)CO [TABS]
- Effective pH Range ([2]; Table 2): 8.2–9.6

Compound: O=C(O)C(O)C(O)C(=O)O (centres unmarked) [Tartrate]
- pKa values for the single buffers, second value [2]: (3.00, 4.40)^1

Compound: N [ammonium hydroxide]
- Effective pH Range ([2]; Table 2): 8.8–9.9

Compound: O=S(=O)(O)CCCNC(CO)(CO)CO [TAPS]
- Effective pH Range ([2]; Table 2): 7.7–9.1

Compound: O=C(O)CC(O)C(=O)O (centres unmarked) [malate]
- Effective pH Range (pK1) ([2]; Table 2): 2.7–4.2
- Effective pH Range (pK2) ([2]; Table 2): 4.0–6.0

Compound: O=S(=O)(O)CCN1CCOCC1 [MES, 2-morpholinoethanesulfonic acid]
- ΔpH ([3]; Table 3, change in pH with decreasing temperature, pH 6.0 at 298 K): +1.4
- pH at plateau ([3]; Table 3, pH 6.0 at 298 K): 7.4
- pH at 298 K ([3]; Table 3): 6.0

Compound: COc1cccc2c1C(=O)c1c(O)c3c(c(O)c1C2=O)C[C@@](O)(C(=O)CO)C[C@@H]3O[C@H]1C[C@H](N)[C@H](O)[C@H](C)O1 [doxorubicin]
- therapeutic activity upon repeated freeze-thaw treatments ([5]; freeze (−20° C.)-thaw (+37° C.), correlates with hydrolysis of the aminoglycoside bond): gradually reduces therapeutic activity
- optimum pH for storage stable, ready-to-use formulations ([5]; storage at 4-8° C.): 3.0

Compound: O=S(=O)(O)CCCN1CCOCC1 [MOPS, 3-N-morpholino propansulfonic acid]
- direction of pH change as the solution is equilibrated at lower temperatures [3]: increases
- ΔpH [3, 7]: +1.6
- pH at plateau ([3]; Table 3, pH 6.1 at 298 K): 7.7
- pH at 298 K ([3]; Table 3): 6.1
- increase of pH upon lowering the temperature ([3]; room temperature to ~170 K, 50 mM, 75% glycerol): about 1.6 pH unit
- degree of pH change with temperature, 50% glycerol versus 75% glycerol ([3]; sample containing 50% glycerol, FIG. 6): somewhat larger
- Effective pH Range ([2]; Table 2): 6.5–7.9

Compound: O=S(=O)(O)CC(O)CN(CCO)CCO (centres unmarked) [DIPSO]
- Effective pH Range ([2]; Table 2): 7.0–8.2

Compound: C1CNCCN1 [piperazine]
- Effective pH Range (pK1) ([2]; Table 2): 5.0–6.0
- Effective pH Range (pK2) ([2]; Table 2): 9.5–9.8

Compound: O=S(=O)(O)CCN1CCN(CCS(=O)(=O)O)CC1 [PIPES]
- Effective pH Range ([2]; Table 2): 6.1–7.5

Compound: CC(=O)O [acetate]
- direction of pH change as the solution is equilibrated at lower temperatures [3]: increases

Compound: O=C(O)CC(O)(CC(=O)O)C(=O)O [citrate]
- Effective pH Range (pK1) ([2]; Table 2): 2.2–6.5
- Effective pH Range (pK2) ([2]; Table 2): 3.0–6.2
- Effective pH Range (pK3) ([2]; Table 2): 5.5–7.2

Compound: CC(C)(N)CO [AMP, 2-amino-2-methyl-1-propanol]
- Effective pH Range ([2]; Table 2): 8.7–10.4

Compound: O=S(=O)(O)CCCCNC1CCCCC1 [CABS]
- Effective pH Range ([2]; Table 2): 10.0–11.4

Compound: O=S(=O)(O)CC(O)CNC1CCCCC1 (centres unmarked) [CAPSO]
- Effective pH Range ([2]; Table 2): 8.9–10.3

Compound: CC(N)(CO)CO [AMPD, 2-amino-2-methyl-1,3-propanediol]
- Effective pH Range ([2]; Table 2): 7.8–9.7

Compound: NCC(=O)O [glycine]
- Effective pH Range (pK1) ([2]; Table 2): 2.2–3.6
- Effective pH Range (pK2) ([2]; Table 2): 8.8–10.6

Compound: O=S(=O)(O)CCCCN1CCN(CCO)CC1 [HEPBS]
- Effective pH Range ([2]; Table 2): 7.6–9.0

Compound: OCC(CO)(CO)NCCCNC(CO)(CO)CO [BIS-TRIS propane, 1,3-bis[tris(hydroxymethyl)methylamino]propane]
- ΔpH [3, 7]: +2.1
- pH at plateau ([3]; Table 3, pH 6.1 at 298 K): 8.2
- pH at 298 K ([3]; Table 3): 6.1
- Effective pH Range ([2]; Table 2): 6.3–9.5
- pKa at 25° C., pK2 ([2]; Table 2, pK2 or second value printed in the cell): 9.00
- pKa values for the single buffers, second value [2]: 9.0

Compound: O=C(O)O [carbonate]
- Effective pH Range (pK1) ([2]; Table 2): 6.0–8.0
- Effective pH Range (pK2) ([2]; Table 2): 9.5–11.1

Compound: phosphate
- Effective pH Range (pK1) ([2]; Table 2): 1.7–2.9
- Effective pH Range (pK2) ([2]; Table 2): 5.8–8.0
- Effective pH Range (pK3) ([2]; Table 2): 11.5–13.0

Compound: Cc1onc(-c2ccccc2)c1C(=O)N[C@@H]1C(=O)N2[C@@H]1SC(C)(C)[C@@H]2C(=O)O [oxacillin]
- hydrolysis of the antibiotic on storage, versus HEPES:KPhosphate (60:40) buffered solution ([6]; 200 μM in 50 mM BisTris Propane buffer pH 7.0, 193 K, freeze-thaw over eight days): greater hydrolysis
- pH-induced hydrolysis under freeze-thaw storage conditions ([6]; 200 μM in 50 mM HEPES:KPhosphate (60:40) pH 7.0, 193 K, eight days): reduced

Compound: O=P(O)(O)OP(=O)(O)O [pyrophosphate]
- Effective pH Range ([2]; Table 2): 7.0–9.0

Compound: O=S(=O)(O)CCCNC1CCCCC1 [CAPS]
- Effective pH Range ([2]; Table 2): 9.7–11.1

Compound: c1c[nH]cn1 [imidazole]
- Effective pH Range ([2]; Table 2): 6.2–7.8

Compound: NCC(=O)NCC(=O)O [glycylglycine] (H-Gly-Gly-OH)
- Effective pH Range (pK1) ([2]; Table 2): 2.5–3.8
- Effective pH Range (pK2) ([2]; Table 2): 7.5–8.9
- pKa at 25° C., pK1 ([2]; Table 2, pK1 or first value printed in the cell): 3.14

Compound: NC(=O)CNCCS(=O)(=O)O [ACES]
- Effective pH Range ([2]; Table 2): 6.1–7.5

Compound: O=S(=O)(O)CC(O)CNC(CO)(CO)CO (centres unmarked) [TAPSO]
- Effective pH Range ([2]; Table 2): 7.0–8.2
